Results as given in patent publication US20240287033A1, “DEGRADERS OF TISSUE TRANSGLUTAMINASE 2 (TG2)” (Northwestern University, priority 2023, published 2024).
“Also recorded” adds a separate entry of the source.

Experiments:
Type in all cases: cell-based
[1] = target: T1, TG2 (Homo sapiens, UniProt P21980); experiment: Western blot analysis of TG2 degradation in OVCAR5 cells; details: 6 hours, 0.1-10 μM
T1 construct: tested in multiple ovarian cancer cell lines that express TG2 for their ability to degrade the protein; endogenous in cells; host or cells: OVCAR5 and SKOV3 ovarian cancer cells
T1 sequence (P21980 1-687): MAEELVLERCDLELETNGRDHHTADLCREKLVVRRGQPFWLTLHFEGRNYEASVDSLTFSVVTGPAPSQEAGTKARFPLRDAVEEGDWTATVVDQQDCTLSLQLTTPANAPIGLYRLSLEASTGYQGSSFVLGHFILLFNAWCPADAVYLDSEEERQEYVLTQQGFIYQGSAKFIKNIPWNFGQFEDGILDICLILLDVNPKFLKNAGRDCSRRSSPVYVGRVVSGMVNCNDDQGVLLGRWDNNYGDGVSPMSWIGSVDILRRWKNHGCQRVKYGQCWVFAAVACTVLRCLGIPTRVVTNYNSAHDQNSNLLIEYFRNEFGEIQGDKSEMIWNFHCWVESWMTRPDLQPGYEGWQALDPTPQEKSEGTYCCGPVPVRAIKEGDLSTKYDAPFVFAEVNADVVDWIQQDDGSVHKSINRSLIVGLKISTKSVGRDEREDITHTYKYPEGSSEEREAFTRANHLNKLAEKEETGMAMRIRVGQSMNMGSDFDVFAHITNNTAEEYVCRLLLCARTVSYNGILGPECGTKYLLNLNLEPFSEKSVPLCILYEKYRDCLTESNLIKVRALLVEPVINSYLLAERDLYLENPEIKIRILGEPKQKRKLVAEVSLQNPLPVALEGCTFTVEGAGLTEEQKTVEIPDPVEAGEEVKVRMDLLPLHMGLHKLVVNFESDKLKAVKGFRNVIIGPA
Protocol: (§1) SKOV3 cells were purchased from ATCC. OVCAR5 cells were obtained from Dr. Marcus Peter at Northwestern University. Cells were maintained at 37° C. in an environment of 5% CO2 and 100% humidity. The media used for culturing the cell lines are included in Table 1. Cells lines used in all experiments were at low-passages and were confirmed to be pathogen and mycoplasma-free by Charles River Animal Diagnostic Services. Cell lines were authenticated by IDEXX BioAnalytics with short tandem repeat (STR) profiling. MG132 was obtained from SelleckChem. Anti-TG2 antibody (cat #: MAB3839-I-100UG) was purchased from Millipore Sigma, GAPDH antibody (cat #: H86504M) was purchased from Meridian Bioscience.
(§2) Briefly, SKOV3 and OVCAR5 cells were seeded on 6 cm dishes and treated with different concentrations of compounds at different time points. Proteins were extracted using RIPA buffer and quantified using the Bradford assay. After gel electrophoresis and transfer, PDVF membranes were blocked with TBS-Tween 5% BSA for one hour and incubated with primary antibodies 20 (1:1000 dilution, overnight at 4° C.). After incubation with the secondary antibody (anti rabbit/mouse-horseradish peroxidase 1:1000 dilution) for 1 h at room temperature, signal was developed using SuperSignal West Pico PLUS Chemiluminescent Substrate (Thermo Fisher Scientific cat #: 34580) and captured with an ImageQuant LAS 4000 machine. To detect additional proteins, membranes were treated with Restore Western Blot Stripping Buffer (Thermo Fisher Scientific cat #: 21059), blocked, and then incubated with primary antibody.

[2] = target: T1, TG2; experiment: Western blot analysis of TG2 degradation in SKOV3 cells; details: for TG2 degradation (western blot): 6 hours, up to 10 μM; for TG2 degradation with proteasome inhibitor MG132 co-treatment: 10 μM compound 6 hrs, MG132 20 μM 8 hrs
Protocol: as §1, §2

[3] = tested on: OVCAR5 cells; experiment: Wound-healing (scratch) assay, OVCAR5
Protocol: (§3) For the scratch assay, confluent 6-well plates were scratched with a pipette tip, washed and treated with compounds or vehicle. The plate was photographed at set time points and the area of wound closure was quantified with ImageJ. Cell migration was assessed by using Transwell inserts (8 μm pore size, Merck-Millipore, Watford, UK). Briefly, 15,000 cells were seeded in the upper chambers of trans-wells in serum-free media containing compounds or control, while media containing 10% serum was added to the lower chamber. After 18 hours, cells invaded through the transwells were fixed with warm 4% PFA for 20 min at room temperature and stained with crystal violet for 3 min. The membranes were removed, mounted on cover slides and cells were counted using a microscope at 40× magnification.

[4] = tested on: SKOV3 cells; experiment: Wound-healing (scratch) assay, SKOV3
Protocol: as §3

[5] = tested on: OVCAR5 cells; experiment: Solid phase adhesion assay on fibronectin, OVCAR5
Protocol: (§4) Briefly, wells were coated with 10 μg/ml fibronectin diluted in PBS for one hour. 30,000 cells pretreated with compounds for 6 hours were seeded and allowed to attach for 30 minutes. After washing with PBS to remove unattached cells, cells adhering to coated wells were quantified by using the CCK-8 assay (ApexBio), following the manufacturer's protocol. Relative absorbance measured at 496 nm was used to estimate the relative number of the cell attached to fibronectin coated wells.

[6] = tested on: SKOV3 cells; experiment: Solid phase adhesion assay on fibronectin, SKOV3
Protocol: as §4

| Compound | TG2 degradation (western blot) [1] | TG2 degradation (western blot) [2] | cell migration, wound-healing assay [3] | cell migration, wound-healing assay [4] | adhesion of cells to fibronectin [5] | adhesion of cells to fibronectin [6] | TG2 degradation with proteasome inhibitor MG132 co-treatment [2] |
| --- | --- | --- | --- | --- | --- | --- | --- |
| Cc1cc(N(C)CCOCCC(=O)N[C@H](C(=O)N2C[C@@H](O)C[C@H]2C(=O)NCc2ccc(-c3scnc3C)cc2)C(C)(C)C)nc(Nc2ccc(NC(=O)Cc3ccccc3)cc2)n1 [Compound 12, (2S,4S)-1-((S)-3,3-dimethyl-2-(3-(2-(methyl(6-methyl-2-((4-(2-phenylacetamido)phenyl)amino)pyrimidin-4-yl)amino)ethoxy)propanamido)butanoyl)-4-hydroxy-N-(4-(4-methylthiazol-5-yl)benzyl)pyrrolidine-2-carboxamide] | did not induce TG2 degradation; also recorded: No degradation of TG2 was observed | did not induce TG2 degradation; also recorded: No degradation of TG2 was observed | did not affect cell migration | did not affect cell migration | did not affect | did not affect |  |
| Cc1cc(N(C)CCOCCOCCOCCSC(C)(C)[C@H](NC(=O)C2(F)CC2)C(=O)N2C[C@H](O)C[C@H]2C(=O)NCc2ccc(-c3scnc3C)cc2)nc(Nc2ccc(NC(=O)Cc3ccccc3)cc2)n1 [Compound P404] |  | degrade TG2 |  | reduce the migration |  | reduce the migration and adhesion capability | blocked |
| Cc1cc(N(C)CCOCCSC(C)(C)[C@H](NC(=O)C2(F)CC2)C(=O)N2C[C@H](O)C[C@H]2C(=O)NCc2ccc(-c3scnc3C)cc2)nc(Nc2ccc(NC(=O)Cc3ccccc3)cc2)n1 [Compound P405] |  | degrade TG2 |  | reduce the migration |  | reduce the migration and adhesion capability | blocked |
| Cc1cc(N(C)CCOCCOCCOCCOCCOCCC(=O)N[C@H](C(=O)N2C[C@@H](O)C[C@H]2C(=O)NCc2ccc(-c3scnc3C)cc2)C(C)(C)C)nc(Nc2ccc(NC(=O)Cc3ccccc3)cc2)n1 [Compound 13, (2S,4S)-1-((S)-22-(tert-butyl)-2-(6-methyl-2-((4-(2-phenylacetamido)phenyl)amino)pyrimidin-4-yl)-20-oxo-5,8,11,14,17-pentaoxa-2,21-diazatricosan-23-oyl)-4-hydroxy-N-(4-(4-methylthiazol-5-yl)benzyl)pyrrolidine-2-carboxamide] | did not induce TG2 degradation; also recorded: No degradation of TG2 was observed | did not induce TG2 degradation; also recorded: No degradation of TG2 was observed | did not affect cell migration | did not affect cell migration | did not affect | did not affect |  |
